From patent US20080249006A1, “Pharmaceutical Preparation for the Treatment of Shock” (FIBREX MEDICAL RESEARCH & DEVELOPMENT GESMBH, priority 2004, published 2008)

Columns and labels:
[1] = target: T1, VE-cadherin (Homo sapiens, UniProt P33151); assay: Competition ELISA: inhibition of FLAG-tagged Bbeta15-42 binding to VE-cadherin; conditions: for % inhibition of 15-42FLAG-binding to VE-cadherin mean ± SD: FLAG-tagged Bbeta15-42 12 μM
T1 construct: Fc (immunoglobulin Fc fusion partner); purchased R&D Systems, Minneapolis
T1 sequence (P33151 with tags, fused parts or gaps limits assumed): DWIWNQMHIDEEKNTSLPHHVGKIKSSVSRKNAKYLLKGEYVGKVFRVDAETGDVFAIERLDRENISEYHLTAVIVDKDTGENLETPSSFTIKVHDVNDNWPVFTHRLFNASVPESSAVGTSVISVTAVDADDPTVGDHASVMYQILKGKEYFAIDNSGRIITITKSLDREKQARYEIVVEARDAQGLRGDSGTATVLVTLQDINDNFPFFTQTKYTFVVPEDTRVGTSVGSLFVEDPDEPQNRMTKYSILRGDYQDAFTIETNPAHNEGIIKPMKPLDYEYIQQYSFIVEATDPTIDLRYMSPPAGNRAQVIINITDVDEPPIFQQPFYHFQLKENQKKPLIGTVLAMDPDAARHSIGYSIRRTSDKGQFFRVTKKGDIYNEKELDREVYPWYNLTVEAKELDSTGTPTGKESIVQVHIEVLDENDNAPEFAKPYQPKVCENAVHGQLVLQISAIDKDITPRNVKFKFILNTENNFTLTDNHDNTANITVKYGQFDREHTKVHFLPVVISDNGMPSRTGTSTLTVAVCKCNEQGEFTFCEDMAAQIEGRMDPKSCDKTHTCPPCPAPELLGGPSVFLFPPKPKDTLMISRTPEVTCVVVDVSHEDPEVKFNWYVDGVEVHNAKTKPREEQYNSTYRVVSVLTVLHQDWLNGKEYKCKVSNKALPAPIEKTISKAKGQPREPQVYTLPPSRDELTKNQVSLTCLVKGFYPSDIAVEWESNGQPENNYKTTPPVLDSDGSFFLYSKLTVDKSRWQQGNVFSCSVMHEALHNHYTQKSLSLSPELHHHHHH
Text: (§1) We have developed a modified ELISA working with the same principles described by others, but the purpose of the herein described ELISA is not to quantify fibrin degradation products, but to search for proteins, peptides or compounds which interfere with the binding of the Bbeta15-42 sequence and the VE-cadherin. […] Into this system one can introduce any other additional substance and measure if this substance inhibits VE-cadherin/Bbeta15-42 binding.
(§2) In detail, 96 well protein immobilizer plates (Exiqon, Vedbaek, D K) were coated with recombinant human VE-cadherin FC fusion protein (8 nM/ml; R&D Systems, Minneapolis) in PBS and were left overnight at 4° C. Plates were then washed and incubated with peptide Bβ15-42 ([…]) tagged with a FLAG-sequence (DYKDDDDK) at the C-terminus of the peptide or with a FLAG-tagged random peptide ([…]) at a concentration of 0-80 μMol. After washing, bound FLAG-tagged peptide was detected by incubation with a peroxidase-labelled anti-FLAG antibody (Sigma, St. Louis, USA) and chromogenic substrate. Optical density was determined by an ELISA plate reader set at a wavelength of 450 nm. Data represent the mean of three independent experiments, each performed in triplicates.
In a next step, we analyzed whether this ELISA can be used to screen for other peptides/compounds to compete with the binding of the Bβ15-42 sequence to VE-cadherin.
VE-cadherin was coated to the plastic surface at a concentration of 8 nM. Then indicated peptides were added at concentrations of 200 μM, NDSK or NDSK-II were added at indicated concentrations. Detection of binding of the FLAG-tagged Bbeta15-42 (12 μM) was performed as described above.

[2] = target: T2, recombinant human VE-cadherin FC fusion protein (Homo sapiens, UniProt P33151); assay: ELISA: binding of FLAG-tagged peptide to coated VE-cadherin
T2 construct: Fc (immunoglobulin Fc fusion partner); purchased R&D Systems, Minneapolis
T2 sequence (P33151 with tags, fused parts or gaps limits assumed): as above
Text: as §1, §2

[3] = test system: endothelium; conditions: cited from earlier work
[4] = in vivo, ischemia/reperfusion; cited from earlier work
[5] = test system: Dengue virus type 2 (DEN-2), strain P23085; assay: Treatment of dengue virus infected mice; assay type: in vivo, BALB/c mice; conditions: for IL-1 / IL-6 / TNF: serum
[6] = test system: Gram-negative shock, Lipopolysaccharide from E. coli, serotype 0.127:B8; assay: Gram-negative shock (LPS-induced multiple organ failure) in rats; assay type: in vivo, Wistar rats; set-up: Glucose / Amylase / ALT / AST / Creatinine / Urea / heart rate (mean): unit not given here; conditions: for mean number of fibrin thrombi within vessels: end of the experiment, acidic fuchsin-orange G stain
Experimental: Male Wistar rats weighing 230-280 g were housed in the Tierversuchsanlage (University of Düisseldorf) and fed on a standard diet with water ad libitum. All procedures were carried out in accordance with the AAALAC guidelines and Guide for the Care and Use of Laboratory Animals (Department of Health and Human Services, National Institutes of Health, Publication No. 86-23). In addition, all experiments have been approved by an ethical and research board of the University of Düisseldorf and the county. As previously described (Zacharowski et al. Crit. Care Med 2000, Zacharowski et al. Crit. Care Med 2001; 29:1599-1608), rats were anaesthetized with sodium thiopentone (120 mg/kg i.p.) and anesthesia was maintained with supplementary doses of sodium thiopentone as required.
The trachea was cannulated to facilitate respiration and rectal temperature was maintained at 37° C. with a homoeothermic blanket. […] The right jugular vein was cannulated for the administration of drugs. The bladder was also cannulated to facilitate urine flow and to prevent the possibility of the development of post-renal failure. All animals received a total fluid replacement of 1.0 ml/kg/h (0.9% sodium chloride, saline, as an i.v. infusion into the jugular vein) throughout the experiment. Upon completion of the surgical procedure, cardiovascular parameters were allowed to stabilize for 15 min and constantly recorded over 6 h. In this model of LPS-induced multiple organ failure, a period of 6 h is essential to achieve a significant rise in the serum levels of AST and ALT, while a significant rise in the serum levels of urea and creatinine can already be observed after 2 h.
Three groups were studied: Rats were subjected to sham operation: (sham). Rats were subjected to Gram-negative shock. Lipopolysaccharide from E. coli, serotype 0.127:B8 (6 mg/kg i.v.) was given over 5 min i.v., 1 h later, animals received saline (2.4 ml/kg): (LPS+saline). Rats were subjected to Gram-negative shock. Lipopolysaccharide from E. coli, serotype 0.127:B8 (6 mg/kg i.v.) was given over 5 min i.v., animals received Bβ15-42 (2.4 mg/kg): (LPS+Bβ15-42).
Six hours after the induction of Gram-negative shock, blood was collected from the catheter placed in the right carotid artery. The blood sample was centrifuged (1610×g for 3 min at room temperature) to separate plasma. The following marker enzymes were measured in the plasma as biochemical indicators of multiple organ injury/dysfunction:
Liver injury was assessed by measuring the rise in plasma levels of alanine aminotransferase (ALT, a specific marker for hepatic parenchymal injury) and aspartate aminotransferase (AST, a non-specific marker for hepatic injury).
Plasma levels of glucose and amylase were measured as indirect markers of pancreatic function and injury.
In addition, arterial pO2 was measured as indirect marker of lung function/injury. Laboratory values
Organ (lung, liver, heart and kidney) biopsies of all groups studied were taken at the end of the experiment. The biopsies were fixed in buffered formaldehyde solution (4% in phosphate buffered saline) at room temperature and sent to Vienna. […] In sham treated animals no fibrin thrombi were present.

[7] = test system: endothelial surfaces; conditions: in vitro; cited from earlier work
[8] = blocking reagent 200 μM, VE-cadherin 8 nM
[9] = DEN-2 1 LD50 i.p., 4800 μg/kg i.p. twice per day, day 3 to day 8 post infection, p < 0.05 between groups
[10] = plasma, 6 h after induction of Gram-negative shock, Bβ15-42 2.4 mg/kg

Substance: peptide 15-30 (16mer): shorter peptide, amino acids 15-30 of the fibrin Bβ chain
- % inhibition of 15-42FLAG-binding to VE-cadherin mean ± SD ([1]; blocking reagent 12 μM): 6 ± 3%
- % inhibition of 15-42FLAG-binding to VE-cadherin mean ± SD [1, 8]: 61 ± 13%

Substance: peptide 16-42 (27mer): shorter peptide, amino acids 16-42 of the fibrin Bβ chain
- % inhibition of 15-42FLAG-binding to VE-cadherin mean ± SD ([1]; blocking reagent 12 μM): 5 ± 2%
- % inhibition of 15-42FLAG-binding to VE-cadherin mean ± SD [1, 8]: 55 ± 13%

Substance: peptide 15-37 (24mer): shorter peptide, amino acids 15-37 of the fibrin Bβ chain
- % inhibition of 15-42FLAG-binding to VE-cadherin mean ± SD ([1]; blocking reagent 12 μM): 7 ± 2%
- % inhibition of 15-42FLAG-binding to VE-cadherin mean ± SD [1, 8]: 17 ± 19%

Substance: 15-42 FLAG: peptide Bβ15-42 (GHRPLDKKREEAPSLRPAPPPISGGGYR) tagged with a FLAG-sequence (DYKDDDDK) at the C-terminus (GHRPLDKKREEAPSLRPAPPPISGGGYRDYKDDDDK)
- Binding to VE-cadherin, optical density at 450 nm (mean) ([2]; FLAG-tagged peptide 0 μM): 0
- Binding to VE-cadherin, optical density at 450 nm (mean) ([2]; FLAG-tagged peptide 0.23 μM): 0.01
- Binding to VE-cadherin, optical density at 450 nm (mean) ([2]; FLAG-tagged peptide 0.7 μM): 0.02
- Binding to VE-cadherin, optical density at 450 nm (mean) ([2]; FLAG-tagged peptide 2.3 μM): 0.08
- Binding to VE-cadherin, optical density at 450 nm (mean) ([2]; FLAG-tagged peptide 7 μM): 0.33
- Binding to VE-cadherin, optical density at 450 nm (mean) ([2]; FLAG-tagged peptide 14 μM): 0.92
- Binding to VE-cadherin, optical density at 450 nm (mean) ([2]; FLAG-tagged peptide 21 μM): 1.3
- Binding to VE-cadherin, optical density at 450 nm (mean) ([2]; FLAG-tagged peptide 35 μM): 1.5
- Binding to VE-cadherin, optical density at 450 nm (mean) ([2]; FLAG-tagged peptide 46 μM): 1.93
- Binding to VE-cadherin, optical density at 450 nm (mean) ([2]; FLAG-tagged peptide 70 μM): 2.1

Substance: GHRPLDKKREEAPSLRPAPPPISGGGYR [Bβ15-42, peptide matching amino acids 15-42 of the Bbeta chain of human fibrin]
- Inflammation in vitro (in words) [3]: blocks inflammation in vitro
- Binding to VE-cadherin (in words) ([2]; FLAG-tagged peptide 0-80 μMol): bound to VE-cadherin in a concentration-dependent manner
- Myocardial infarct sizes (in words) [4]: reduces myocardial infarct sizes
- Myocardial inflammation (in words) [4]: prevents myocardial inflammation
- mean time to death ([5]; DEN-2 1 LD50 i.p., 4800 μg/kg i.p. twice per day, day 3 to day 8 post infection): All mice survived
- Mortality (%) [5, 9]: 0%
- Survival (%) [5, 9]: 100%
- viremia ([5]; day 2): 1.2 ± 0.2 1 g PFU/ml
- viremia ([5]; day 3^b): 2.2 ± 0.2 1 g PFU/ml
- hematokrit ([5]; day 3 after challenge): 15%
- viremia ([5]; day 4): 4.2 ± 0.2 1 g PFU/ml
- viremia ([5]; day 5): 5.6 ± 0.4 1 g PFU/ml
- hematokrit ([5]; day 5 after challenge): 33%
- viremia ([5]; day 6): 6.0 ± 0.4 1 g PFU/ml
- viremia ([5]; day 7): 5.9 ± 0.4 1 g PFU/ml
- hematokrit ([5]; day 7 after challenge): 43%
- viremia ([5]; day 28): 0 1 g PFU/ml
- viremia ([5]; first line of the table, day number not given): 0 1 g PFU/ml
- IL-1 ([5]; day 3 after challenge): 32 pg/mL
- IL-6 ([5]; day 3 after challenge): 140 pg/mL
- TNF ([5]; day 3 after challenge): 32 pg/mL
- IL-1 ([5]; day 5 after challenge): 29 pg/mL
- IL-6 ([5]; day 5 after challenge): 110 pg/mL
- TNF ([5]; day 5 after challenge): 65 pg/mL
- IL-1 ([5]; day 7 after challenge): 28 pg/mL
- IL-6 ([5]; day 7 after challenge): 100 pg/mL
- TNF ([5]; day 7 after challenge): 45 pg/mL
- Survival ([6]; LPS 6 mg/kg i.v. plus Bβ15-42 2.4 mg/kg, n = 20 in each group, p < 0.05): 88%
- heart rate (mean) ([6]; LPS + Bβ15-42, time 0 h): 436.9
- mean arterial pressure (mean) ([6]; LPS + Bβ15-42, time 0 h): 128.9
- heart rate (mean) ([6]; LPS + Bβ15-42, time 1 h): 484.8
- mean arterial pressure (mean) ([6]; LPS + Bβ15-42, time 1 h): 83.7
- heart rate (mean) ([6]; LPS + Bβ15-42, time 2 h): 484.1
- mean arterial pressure (mean) ([6]; LPS + Bβ15-42, time 2 h): 102.3
- heart rate (mean) ([6]; LPS + Bβ15-42, time 3 h): 509.8
- mean arterial pressure (mean) ([6]; LPS + Bβ15-42, time 3 h): 103.2
- heart rate (mean) ([6]; LPS + Bβ15-42, time 4 h): 516.7
- mean arterial pressure (mean) ([6]; LPS + Bβ15-42, time 4 h): 101.2
- heart rate (mean) ([6]; LPS + Bβ15-42, time 5 h): 533.7
- mean arterial pressure (mean) ([6]; LPS + Bβ15-42, time 5 h): 97.1
- heart rate (mean) ([6]; LPS + Bβ15-42, time 6 h): 541.6
- mean arterial pressure (mean) ([6]; LPS + Bβ15-42, time 6 h): 107.7
- Fibrin thrombi in sections stained for fibrin deposits, controls versus treated (in words) ([6]; acidic fuchsin-orange G, p<0.05): significantly elevated numbers of fibrin thrombi in controls receiving LPS alone as compared with animals treated with LPS plus Bβ15-42
- pO2 ([6]; arterial, 6 h after induction of Gram-negative shock, Bβ15-42 2.4 mg/kg): 98.7
- Standard H&E-stained organ sections (lung, liver, heart, kidney), comparison of groups ([6]; biopsies at the end of the experiment): no differences
- mean number of fibrin thrombi within vessels ([6]; heart): 5 + 2
- mean number of fibrin thrombi within vessels ([6]; kidney): 2 + 9
- mean number of fibrin thrombi within vessels ([6]; liver): 78 + 37
- mean number of fibrin thrombi within vessels ([6]; lung): 1 + 0
- ALT [6, 10]: 261.9
- AST [6, 10]: 529.0
- Amylase [6, 10]: 1945.1
- Creatinine [6, 10]: 0.6
- Glucose [6, 10]: 45.8
- Urea [6, 10]: 107.8
- Binding of fibrin fragments to endothelial surfaces (in words) [7]: blocks binding of fibrin fragments to endothelial surfaces
- Inhibition of binding of flag-tagged peptide Bβ15-42 to VE-cadherin (in words) [1]: completely inhibited
- % inhibition of 15-42FLAG-binding to VE-cadherin mean ± SD [1, 8]: 100 ± 10%

Substance: peptide 15-18 (4mer): shorter peptide, amino acids 15-18 of the fibrin Bβ chain
- % inhibition of 15-42FLAG-binding to VE-cadherin mean ± SD ([1]; blocking reagent 12 μM): 7 ± 2%
- % inhibition of 15-42FLAG-binding to VE-cadherin mean ± SD [1, 8]: 65 ± 12%

Substance: peptide 15-26 (12mer): shorter peptide, amino acids 15-26 of the fibrin Bβ chain
- % inhibition of 15-42FLAG-binding to VE-cadherin mean ± SD ([1]; blocking reagent 12 μM): 6 ± 1%
- % inhibition of 15-42FLAG-binding to VE-cadherin mean ± SD [1, 8]: 64 ± 10%

Substance: peptide 15-34 (20mer): shorter peptide, amino acids 15-34 of the fibrin Bβ chain
- % inhibition of 15-42FLAG-binding to VE-cadherin mean ± SD ([1]; blocking reagent 12 μM): 7 ± 1%
- % inhibition of 15-42FLAG-binding to VE-cadherin mean ± SD [1, 8]: 67 ± 17%
